According to patent US5691334A, “Pyrrolydenemethyl-derivatives and process for their preparation” (Pharmacia & Upjohn S.p.A., priority 1993, dated 1997):
Structures can show the parent of a compound that is named as a salt. Where two headings read alike, the source gives them in different places.

Columns and labels:
[1] = test system: murine splenocytes; assay: Lymphocyte proliferation (tests 1 and 2: murine splenocytes induced by ConA / by irradiated allogenic spleen cells, MLR); type: cell-based; conditions: for IC50: Mus musculus, Splenocyte, read-out: IC50 lymphocyte proliferation (upper and lower limits); for TI (therapeutic index): ratio of mean IC50 on tumor cells growth (test 3) to IC50 on lymphocytes proliferation (tests 1 and 2)
Experimental: Proliferation of murine splenocytes induced by the mitogen Concanavaline A.
Proliferation of murine splenocytes induced by irradiated allogenic murine spleen cells (MLR).
Tests 1 and 2 allow the study of the compounds on proliferation models mediated by T-cell growth factors (e.g. IL-2) and are considered immunologically specific.
Spleens were aseptically removed from C57B1/6 mice and a cell suspension prepared in complete medium. Cell viability was evaluated by trypan blue exclusion.
Spleen cells (4×10^5) were cultured in triplicate in a volume of 0.15 ml, in flat bottomed microculture plates, in the absence or presence of an optimal concentration of ConA (1.7 microgr/ml) and of different concentrations of the test compound. Cultures were incubated for 72 h at 37° C. in a humidified, 5% CO2 incubator; 18 h before termination of the cultures, 0.2 microCi of [methyl-^3 H]thymidine were added to each well. Cells were harvested on glass fiber filters and the [^3 H]TdR uptake (cpm) quantified in a liquid scintillation counter.
Spleens were aseptically removed from C57B1/6 mice (responders) and Balb/c mice (stimulators), and cell suspensions prepared in complete medium. Responder cells (1×10^6) were cocultured in triplicate with irradiated (1500R) stimulator cells (5×10^5) in a volume of 0.15 ml in the presence or absence of different concentrations of the test compound, in flat bottomed microculture plates. Cultures were incubated for 96 h at 37° C. in a humidified, 5% CO2 incubator; the last 18 h in the presence of 0.2 microCi of ^3 H-TdR.
Cells were harvested on glass fiber filter and the ^3 H-TdR uptake (cpm) quantified in a liquid scintillation counter.
The concentration inhibiting 50% (IC50) of the cell proliferation in the different settings is calculated for the test compounds and the reference standard UP. The ratio between the mean IC50 values on tumor cells growth (test 3) and the IC50 on lymphocytes proliferation (measured by test 1 and 2) produces the therapeutic index (TI) of the compounds.

[2] = test system: tumor cell lines (human erythroleukemia K562, murine melanoma B16); assay: Tumor cell growth (test 3: proliferation of human erythroleukemia K562, murine melanoma B16; MTT); type: cell-based; conditions: read-out: IC50 tumor cell growth (upper and lower limits)
Experimental: Proliferation of tumor cell lines (human erythroleukemia K562, murine melanoma B16).
Test 3 allows to investigate the inhibitory effect of the present compounds on a generic proliferation pathway, independent from immune-specific growth factors.
Tumor cells were collected in the logarithmic phase of growth and seeded in triplicate in flat bottomed microculture plates at the concentration of 1×10^4 in the presence or absence of different concentrations of the test compound. After 48 h incubation at 37° C. in 5% CO2, the cell viability was evaluated by the MTT colorimetric method according to Ferrari et al., J. Immunol.
The concentration inhibiting 50% (IC50) of the cell proliferation in the different settings is calculated for the test compounds and the reference standard UP.

[3] = tests 1 and 2, [3H]thymidine uptake, ConA 72 h, MLR 96 h, limits in parentheses
[4] = test 3, mean IC50 on tumor cells (K562, B16), 48 h, MTT, limits in parentheses

Row | Compound | IC50 [1] [µg/mL] | TI (therapeutic index) [1] | IC50 ([2]; K562, 48 h) [µg/mL] | IC50 [1, 3] [µg/mL] | IC50 [2, 4] [µg/mL]
1 | CCCCCCCCCCCC1=NC(=Cc2[nH]c(-c3ccc[nH]3)cc2OCC)C=C1.Cl [FCE 28512, 4-ethoxy-5-[(5-undecyl-2H-pyrrol-2-ylidene)methyl]-2,2'-bi-1H-pyrrole, hydrochloride] | 0.0023 | 222 | 0.511 | – | –
2 | CCCCCCCCCCCCCC1=NC(=Cc2[nH]c(-c3ccc[nH]3)cc2OC)C=C1.Cl [FCE 28526, 4-methoxy-5-[(5-tridecyl-2H-pyrrol-2-ylidene)methyl]-2,2'-bi-1H-pyrrole, hydrochloride] | – | 290 | – | 0.002 | 0.584
3 | CCCCCCCCCCCCCC1=NC(=Cc2[nH]c(-c3ccc[nH]3)cc2OCC)C=C1.Cl [FCE 28733, 4-ethoxy-5-[(5-tridecyl-2H-pyrrol-2-ylidene)methyl]-2,2'-bi-1H-pyrrole, hydrochloride] | 0.0051 | 168 | 0.859 | – | –
4 | CCCCCCCCCCCC1=NC(=Cc2[nH]c(-c3ccc[nH]3)cc2OCCCC)C=C1 [FCE 28789, 4-buthoxy-5-[(5-undecyl-2H-pyrrol-2-ylidene)methyl]-2,2'-bi-1H-pyrrole, hydrochloride] | – | 66 | – | 0.0119 | 0.784
5 | CCCCCCCCCCCC1=NC(=Cc2[nH]c(-c3ccc[nH]3)cc2OCc2ccccc2)C=C1.Cl [FCE 29002, 4-benzyloxy-5-[(5-undecyl-2H-pyrrol-2-ylidene)methyl]-2,2'-bi-1H-pyrrole, hydrochloride] | 0.0301 | 193 | 5.8 | – | –
6 | CCCCCCCCCCCC1=NC(=Cc2[nH]c(-c3ccc[nH]3)cc2OC)C=C1.Cl [UP, 4-methoxy-5-[(5-undecyl-2H-pyrrol-2-ylidene)methyl]-2,2'-bi-1H-pyrrole, hydrochloride, reference compound] | 0.0029 | 36 | 0.106 | – | –
